Measurements taken from patent US8114882B2, “(1H-indol-7-yl)-(pyrimidin-2-ylamino)methanone derivatives and related compounds as IGF-R1 inhibitors for the treatment of cancer” (Merck Patent GmbH, priority 2005, dated 2012).

Biological target: T1, IGF-1R (Homo sapiens, UniProt P08069)
T1 construct: Cultivated human tumour cells which express the IGF1 receptor (IGF1R); endogenous in cells
Test: Inhibition of IGF-1R (IC50): IGF1-stimulated IGF1R autophosphorylation in human tumour cells, Capture-ELISA or LUMINEX
Type: cell-based
Details: Table 1; human tumour cells expressing IGF1R (for example MCF-7 or Calu-6), 45 min pre-treatment, 5 min IGF1 stimulation
Procedure: Cultivated human tumour cells which express the IGF1 receptor (IGF1R) (for example MCF-7 or Calu-6) are stimulated using human IGF1, the natural ligand of IGF1R. The stimulation induces autophosphorylation of tyrosine residues in the cytoplasmatic IGF1R domain, which triggers signal transduction cascades, which result in apoptosis inhibition and cell proliferation.
The amount of phosphorylated IGF1R is determined by a receptor-specific Capture-ELISA or an analogous LUMINEX assay. The IGF1R from cell lysates is bound to a 96-well ELISA plate or LUMINEX beads (“capturing”) by means of a specific antibody, and the tyrosine phosphorylation is detected using a biotin-labelled anti-phosphotyrosine antibody and a streptavidin peroxidase conjugate by a chemoluminescence method or by means of a fluorescence-labelled anti-phosphotyrosine antibody.
In order to determine the activity of kinase inhibitors, cells are pre-treated with increasing concentrations of these compounds for 45 min and subsequently stimulated using IGF1 for 5 min. As internal control, the biological activity of the ligand IGF1 is checked and a concentration series of an IGF1R reference inhibitor measured.

T1 sequence (P08069 31-1367): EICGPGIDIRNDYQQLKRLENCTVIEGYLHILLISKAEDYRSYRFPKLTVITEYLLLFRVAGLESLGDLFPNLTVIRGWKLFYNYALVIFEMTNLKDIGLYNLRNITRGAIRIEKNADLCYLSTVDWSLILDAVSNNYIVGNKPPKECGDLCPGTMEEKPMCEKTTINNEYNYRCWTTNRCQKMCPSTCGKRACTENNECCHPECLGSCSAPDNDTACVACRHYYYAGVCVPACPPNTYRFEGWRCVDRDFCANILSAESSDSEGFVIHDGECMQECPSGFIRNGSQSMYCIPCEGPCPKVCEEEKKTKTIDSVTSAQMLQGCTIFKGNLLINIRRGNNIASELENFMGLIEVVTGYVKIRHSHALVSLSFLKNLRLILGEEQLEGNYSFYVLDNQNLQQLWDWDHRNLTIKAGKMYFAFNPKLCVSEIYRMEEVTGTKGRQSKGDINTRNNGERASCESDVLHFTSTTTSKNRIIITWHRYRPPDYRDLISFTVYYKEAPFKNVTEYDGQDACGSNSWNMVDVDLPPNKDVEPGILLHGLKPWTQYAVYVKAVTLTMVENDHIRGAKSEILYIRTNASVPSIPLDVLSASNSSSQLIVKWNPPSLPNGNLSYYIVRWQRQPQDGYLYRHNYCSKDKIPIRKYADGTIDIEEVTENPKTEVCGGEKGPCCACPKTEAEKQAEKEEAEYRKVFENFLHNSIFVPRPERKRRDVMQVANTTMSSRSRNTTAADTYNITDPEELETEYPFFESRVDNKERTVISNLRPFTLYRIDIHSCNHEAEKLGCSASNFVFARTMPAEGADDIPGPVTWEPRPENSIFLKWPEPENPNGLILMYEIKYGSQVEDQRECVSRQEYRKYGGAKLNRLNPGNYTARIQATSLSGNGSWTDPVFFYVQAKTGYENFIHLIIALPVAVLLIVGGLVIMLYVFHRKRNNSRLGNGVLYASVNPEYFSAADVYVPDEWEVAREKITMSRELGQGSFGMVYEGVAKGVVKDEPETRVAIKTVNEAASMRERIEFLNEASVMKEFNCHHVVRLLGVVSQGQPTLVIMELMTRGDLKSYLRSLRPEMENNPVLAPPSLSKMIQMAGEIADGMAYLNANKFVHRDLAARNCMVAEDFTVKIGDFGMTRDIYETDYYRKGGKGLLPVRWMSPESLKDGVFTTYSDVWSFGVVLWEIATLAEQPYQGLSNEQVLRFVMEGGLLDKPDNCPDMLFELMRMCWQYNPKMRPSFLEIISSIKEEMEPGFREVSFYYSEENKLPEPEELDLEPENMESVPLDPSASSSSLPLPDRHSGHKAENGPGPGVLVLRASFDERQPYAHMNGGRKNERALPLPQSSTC

IC50 [µM]	Compound
2.6	O=C(c1ccc(Nc2ccnc(Cl)n2)cc1)c1cccc2cc[nH]c12
7.85	O=C(c1ccc(Nc2ccnc(Cl)n2)cc1)c1cccc2c1NCC2
2.4	O=C(c1ccc(Nc2nccc(NCc3cccnc3)n2)cc1)c1cccc2c1NCC2
2.2	COc1cc(Nc2nccc(Nc3ccc(C(=O)c4cccc5cc[nH]c45)cc3)n2)cc(OC)c1OC
1.8	O=C(c1ccc(Nc2ccnc(Nc3ccc(C(=O)c4cccc5cc[nH]c45)cc3)n2)cc1)c1cccc2cc[nH]c12
0.49	N#Cc1c[nH]c2c(C(=O)c3ccc(Nc4ccnc(Nc5ccc(C(=O)c6cccc7c(C#N)c[nH]c67)cc5)n4)cc3)cccc12
3.1	N#CCCNc1nccc(Nc2ccc(C(=O)c3cccc4cc[nH]c34)cc2)n1
1.2	O=C(c1ccc(Nc2ccnc(NCC3CC(O)C3)n2)cc1)c1cccc2cc[nH]c12 (stereo not drawn)
0.15	O=C(c1ccc(Nc2ccnc(Nc3ncc[nH]3)n2)cc1)c1cccc2cc[nH]c12
0.63	O=C(c1c[nH]nc1Nc1nccc(Nc2cnc3ccccc3c2)n1)c1cccc2cc[nH]c12
10	O=C(c1ccc(Nc2ccnc(Nc3cc(-c4ccccc4)[nH]n3)n2)cc1)c1cccc2cc[nH]c12
2.9	Cc1cc(Nc2nccc(Nc3ccc(C(=O)c4cccc5cc[nH]c45)cc3)n2)n[nH]1
15	O=C(c1ccc(Nc2ccnc(Nc3cc(-c4ccco4)[nH]n3)n2)cc1)c1cccc2cc[nH]c12
12	CC(C)(C)c1cc(Nc2nccc(Nc3ccc(C(=O)c4cccc5cc[nH]c45)cc3)n2)n[nH]1
2.4	O=C(c1ccc(Nc2ccnc(Nc3cc[nH]n3)n2)cc1)c1cccc2cc[nH]c12
